Tests used:
human normal melanocytes = experiment: Melanogenesis inhibition experiment (14C-2-thiouracil incorporation); type: cell-based; conditions: for Melanin Amount (%) Sample (2): 1% plant extract or 0.1 μg/mL existing skin-whitening compound alone, ratio to control; for synergistic effect of a melanogenesis inhibitory action: in combination with D-pantothenyl alcohol, conclusion from Table 2
Protocol: According to the method described below, 2-thiouracil (^14C-labeled 2-thiouracil in the present test) which is specifically incorporated into melanin in the melanin synthesis process within cells was used to evaluate the melanogenesis inhibitory action. With a complete medium for melanocyte culture (Invitrogen Corporation) used in a 24-well plate, human normal melanocytes (Kurabo Industries, Ltd.) were seeded in each well at a concentration of 6.0×10^4 cells/well/0.5 mL. Under a 5% carbon dioxide atmosphere, the culture was conducted at 37° C. for 24 hours. Then, replacement was made such that a 0.5 mL medium containing D-pantothenyl alcohol at 0 mM or 1 mM was in each of three wells for each concentration and, to these […] wells, 0.5 μCi/well of 2-[2-^14C] thiouracil (Daiichi Clarity Co., Ltd.) was further added. And it was further cultured for 3 days under the same conditions as the aforementioned culture conditions. After completion of the culture, the culture medium was removed from each well, which was washed with PBS (phosphate-buffered saline), and the number of cells was measured using the WST-8 reagent (Dojindo Laboratories). The WST-8 reagent was removed from each well, which was washed with PBS, and using 100 (w/v) % trichloroacetic acid (Wako Pure Chemical Industries, Ltd.), the cells were separated from the bottom of the wells, to which water was then added for dilution so that the concentration of the trichloroacetic acid could be 10 (w/v) %, and which were allowed to stand in a refrigerator for 30 minutes. After the cells were recovered by centrifugation, the amount of ^14C-thiouracil in the cells recovered from each well was measured with a liquid scintillation counter (Aloka Co., Ltd.).
Relative to the radiation doses of the cells cultured in the media containing 0 mM D-pantothenyl alcohol (control), the radiation doses of the cells cultured in the media containing 1 mM D-pantothenyl alcohol were each obtained in percentage as the amount of melanin (%). In other words, it is possible to determine that the smaller the radiation dose incorporated into each cell is, the smaller the amount of melanin is, and accordingly, it is possible to determine that the melanin inhibition titer of the added ingredient is larger.
(§1) While 0 mM or 0 μM D-pantothenyl alcohol was used as a control similarly, the 1 mM D-pantothenyl alcohol in <Experiment 1> was replaced with each of the following samples (1) to (3) for experimenting.

[1] = system: human normal keratinocytes; experiment: Keratinocyte cell proliferation experiment (WST-8); type: cell-based; conditions: for Cell Proliferation Rate (%) Sample (2): 1% plant extract or 0.1 μg/mL existing skin-whitening compound alone, ratio to control; for synergistic effect of a keratinocyte cell proliferation action: in combination with D-pantothenyl alcohol, conclusion from Table 2
Protocol: According to the method described below, the cell proliferation promoting action was evaluated. With a complete medium for keratinocyte culture (Kurabo Industries, Ltd.) used in a 24-well plate, human normal keratinocytes (Kurabo Industries, Ltd.) were seeded in each well at a concentration of 1.0×10^4 cells/well/1 mL. Under a 5% carbon dioxide atmosphere, the culture was conducted at 37° C. for 24 hours. Then, replacement was made such that a 1 mL medium containing D-pantothenyl alcohol at 0 μM, 15 μM, or 150 μM was in each of three wells for each concentration. And it was further cultured for 2 days under the same conditions as the aforementioned culture conditions. After completion of the culture, 20 μL of the WST-8 reagent (Dojindo Laboratories) was added to each well, and color reaction was allowed at 37° C. for 3 hours. After the reaction, absorbances at 450 nm and 650 nm were measured using a microplate reader, Benchmark Plus (Bio-Rad Laboratories), and the 450 nm absorbance measurement minus the 650 nm absorbance measurement was calculated to give a cell proliferation measurement.
Relative to the cell proliferation measurements for the wells cultured in the media containing 0 μM D-pantothenyl alcohol (control), the cell proliferation measurements for the wells cultured in the media containing D-pantothenyl alcohol were each obtained in percentage as a cell proliferation rate (%). In other words, it is possible to determine that the larger the absorbance value is, the higher the cell proliferation rate is, and accordingly, it is possible to determine that the cell proliferation promotion titer of the added ingredients is larger.
as §1
In addition, the 15 μM and the 150 μM D-pantothenyl alcohol in <Experiment 2> were replaced with the aforementioned samples (1) to (3) respectively for experimenting. Note that the amount of melanin (%) and the cell proliferation rate (%) in Table 2 are both a ratio to the control, as described in Experiment 1 and Experiment 2.

Row | SMILES | Melanin Amount (%) Sample (2) (human normal melanocytes) | synergistic effect of a melanogenesis inhibitory action (human normal melanocytes) | Cell Proliferation Rate (%) Sample (2) [1] | synergistic effect of a keratinocyte cell proliferation action [1] | Melanin Amount (%) Sample (1) (human normal melanocytes; 1 mM D-pantothenyl alcohol alone, ratio to 0 mM control) | melanogenesis inhibitory action (human normal melanocytes; Experiment 1, 1 mM vs 0 mM, FIG. 1, result in words) | Cell Proliferation Rate (%) Sample (1) ([1]; 1 mM D-pantothenyl alcohol alone, ratio to 0 μM control) | keratinocyte cell proliferation action ([1]; Experiment 2, 15 μM or 150 μM vs 0 μM, FIG. 2, result in words)
1 | CCCCc1ccc(O)cc1O [4-n-butyl resorcinol] | 93.2% | synergistic effect | 120.3% | synergistic effect | – | – | – | –
2 | c1ccc(C(c2ccccc2)(c2ccccc2)n2ccnc2)cc1 [Compound 1, 1-(triphenylmethyl) imidazole] | 93.1% | synergistic effect | 112.1% | synergistic effect | – | – | – | –
3 | O=C(N[C@@H](CO)C(=O)O)c1ccccc1 [Compound 31, N-benzoyl-L-serine] | 94.6% | synergistic effect | 118.7% | synergistic effect | – | – | – | –
4 | CSCCC(NC(=O)c1ccc(C)cc1)C(=O)O (stereo not shown) [Compound 45, N-(toluyl) methionine] | 93.4% | – | 113.2% | – | – | – | – | –
5 | CC(C)(CO)[C@@H](O)C(=O)NCCCO [D-pantothenyl alcohol] | – | – | – | – | 69.8% | has a melanogenesis inhibitory action | 123.3% | has a keratinocyte cell proliferation action
6 | C[C@H]1[C@H](C)CC[C@]2(C(=O)O)CC[C@]3(C)C(=CC[C@@H]4[C@@]5(C)CCC(OP(=O)(O)O)C(C)(C)[C@@H]5CC[C@]43C)[C@H]12 (stereo partly shown) [Ursolic acid phosphate ester, ursolic acid phosphate ester] | 98.4% | synergistic effect | 118.6% | synergistic effect | – | – | – | –
